Results published in the CheMixHub ionic liquid set.
Several values for one entry are separate records, joined by “and”; a condition that tells them apart may be missing. Equal entries are not always repeated.

Assay: xn = mol fraction of the nth substance listed

C[S+](C)C.O=S(=O)([N-]S(=O)(=O)C(F)(F)F)C(F)(F)F + CC1COC(=O)O1
101 kPa
Conditions	electrical conductivity [S/m]
283.15 K, x2 = 0.76	0.862
298.15 K, x1 = 0.0005	0.035
298.15 K, x1 = 0.0008	0.044
298.15 K, x2 = 0.6202	1.29
333.15 K, x2 = 0.76	2.54

C[S+](C)C.O=S(=O)([N-]S(=O)(=O)C(F)(F)F)C(F)(F)F + CC#N
101 kPa
Conditions	electrical conductivity
264.85 K, x2 = 0.87	3.61 S/m
273.15 K, x2 = 0.87	4.06 S/m
298.15 K, x1 = 0.0001	0.027 S/m and 0.059 S/m
298.15 K, x1 = 0.0005	0.208 S/m
323.15 K, x2 = 0.87	6.94 S/m

CC(=O)[O-].CCCC[N+](CCCC)(CCCC)CCCC + CC(=O)O + O
303.15 K, 100 kPa
Conditions	viscosity [mPa·s]
x2 = 0, x3 = 0.0263	680
x2 = 0.0971, x3 = 0.0291	460
x2 = 0.194, x3 = 0.0301	297
x2 = 0.3213, x3 = 0.0263	169
x2 = 0.4883, x3 = 0.0234	83
x2 = 0.6588, x3 = 0.0167	41
x2 = 0.7897, x3 = 0.0128	25
x2 = 0.8911, x3 = 0.0099	19

NCCCNCCCN + CC(=O)[O-].CCCC[n+]1ccn(C)c1 + O
viscosity [mPa·s], 101 kPa
Conditions	298.15 K	303.15 K	308.15 K	313.15 K	318.15 K	323.15 K	328.15 K	333.15 K
x2 = 0.03479, x1 = 0.0177	3.36	3.32	3.14	2.86	2.61	2.28	1.96	1.77
x2 = 0.03897, x1 = 0.01333	3.54	3.51	3.28	2.95	2.66	2.52	2.34	2.15
x2 = 0.04311, x1 = 0.00893	3.88	3.76	3.32	2.96	2.74	2.62	2.37	2.24

CC(C)=O + CC(=O)[O-].CC[NH2+]CC
Conditions	viscosity [mPa·s]
298.15 K, 101 kPa, x2 = 0	0.309

CCCCCC[n+]1ccn(C)c1.F[B-](F)(F)F + CC(C)(C)O
298.15 K, 101 kPa
Conditions	viscosity [mPa·s]
x2 = 0.3074	69.2
x2 = 0.8007	13.92

CCCCCCCCCCCCCCCC[n+]1ccccc1.O=C([O-])C(O)c1ccccc1 + CC(C)C[C@H](N)C(=O)O + O
electrical conductivity [S/m], 101 kPa
Conditions	293.15 K	298.15 K	303.15 K	308.15 K	313.15 K
x1 = 9.1e-07, x2 = 0.001799	0.00171	0.00194	0.00216	0.0024	0.0027
x1 = 1.08e-06, x2 = 0	0.00061	0.00068	0.00076	0.00083	0.0009
x1 = 1.27e-06, x2 = 0.0009002	0.00143	0.0016	0.0018	0.002	0.0022
x1 = 1.98e-06, x2 = 0	0.001	0.0012	0.0013	0.0014	0.0016
x1 = 2.19e-06, x2 = 0.001799	0.00211	0.00239	0.00267	0.003	0.0033
x1 = 2.54e-06, x2 = 0.0009002	0.00187	0.00211	0.00235	0.0026	0.0029
x1 = 2.88e-06, x2 = 0	0.00147	0.0016	0.0018	0.002	0.0022
x1 = 3.1e-06, x2 = 0.001799	0.00244	0.00277	0.00309	0.0034	0.0038
x1 = 3.44e-06, x2 = 0.0009002	0.0022	0.00251	0.00278	0.0031	0.0034
x1 = 3.96e-06, x2 = 0	0.0019	0.0022	0.0024	0.0026	0.0029
x1 = 4.19e-06, x2 = 0.001799	0.00279	0.00316	0.00352	0.0039	0.0043
x1 = 4.69e-06, x2 = 0	0.0023	0.0026	0.0029	0.0031	0.0035
x1 = 4.71e-06, x2 = 0.0009002	0.00261	0.00294	0.00329	0.0036	0.004
x1 = 5.1e-06, x2 = 0.001799	0.00312	0.00353	0.00394	0.0044	0.0048
x1 = 5.95e-06, x2 = 0	0.00281	0.0032	0.0035	0.0038	0.0042
x1 = 5.98e-06, x2 = 0.0009002	0.00307	0.00345	0.00384	0.0043	0.0047
x1 = 6.74e-06, x2 = 0.001799	0.00363	0.0041	0.00457	0.0051	0.0056
x1 = 7.21e-06, x2 = 0	0.00341	0.0038	0.0042	0.0046	0.0051
x1 = 7.43e-06, x2 = 0.0009002	0.00352	0.00397	0.00441	0.0049	0.0054
x1 = 8.2e-06, x2 = 0.001799	0.00408	0.00463	0.00516	0.0057	0.0064
x1 = 8.7e-06, x2 = 0.0009002	0.00394	0.00445	0.00497	0.0055	0.0061
x1 = 8.83e-06, x2 = 0	0.00406	0.0046	0.005	0.0055	0.006
x1 = 9.84e-06, x2 = 0.001799	0.00451	0.00511	0.00572	0.0064	0.0071
x1 = 1.045e-05, x2 = 0	0.00469	0.0053	0.0058	0.0065	0.0071
x1 = 1.051e-05, x2 = 0.0009002	0.00444	0.00501	0.0056	0.0062	0.0069
x1 = 1.13e-05, x2 = 0.001799	0.00486	0.00551	0.00618	0.0069	0.0077
x1 = 1.196e-05, x2 = 0.0009002	0.00475	0.00538	0.006	0.0067	0.0075
x1 = 1.207e-05, x2 = 0	0.00516	0.0058	0.0064	0.0071	0.0079
x1 = 1.294e-05, x2 = 0.001799	0.00522	0.00591	0.00661	0.0074	0.0082
x1 = 1.323e-05, x2 = 0.0009002	0.00506	0.00573	0.0064	0.0071	0.0079
x1 = 1.351e-05, x2 = 0	0.00562	0.00631	0.007	0.0077	0.0085
x1 = 1.44e-05, x2 = 0.001799	0.00556	0.00629	0.00704	0.0079	0.0088
x1 = 1.468e-05, x2 = 0.0009002	0.00539	0.00609	0.0068	0.0076	0.0084
x1 = 1.478e-05, x2 = 0	0.00603	0.0068	0.0075	0.0083	0.0092
x1 = 1.585e-05, x2 = 0.001799	0.00586	0.00664	0.00743	0.0083	0.0092
x1 = 1.595e-05, x2 = 0.0009002	0.00568	0.00642	0.0072	0.008	0.0089
x1 = 1.622e-05, x2 = 0	0.00644	0.0072	0.008	0.0089	0.0098
x1 = 1.722e-05, x2 = 0.0009002	0.00598	0.00676	0.0075	0.0084	0.0093
x1 = 1.731e-05, x2 = 0.001799	0.00617	0.00698	0.00783	0.0087	0.0097
x1 = 1.766e-05, x2 = 0	0.00687	0.0077	0.0085	0.0094	0.0104

CCCCCC[n+]1ccn(C)c1.F[B-](F)(F)F + CC(C)O
101 kPa
Conditions	viscosity [mPa·s]
293.15 K, x2 = 0.9165	3.61
303.15 K, x2 = 0.1493	68.1
303.15 K, x2 = 0.3752	26.9
303.15 K, x2 = 0.5845	11.6
303.15 K, x2 = 0.7067	7.02
303.15 K, x2 = 0.762	5.47
313.15 K, x2 = 0.2992	24.9
313.15 K, x2 = 0.762	3.99
323.15 K, x2 = 0	50.3
323.15 K, x2 = 0.2289	21.4
323.15 K, x2 = 0.2992	18.8
333.15 K, x2 = 0	34
333.15 K, x2 = 0.1493	20.7
333.15 K, x2 = 0.3752	10.33
333.15 K, x2 = 0.762	2.35

COP(=O)([O-])OC.Cn1cc[n+](C)c1 + CC(C)O
101 kPa
Conditions	viscosity [mPa·s]
293.15 K, x2 = 0	416
293.15 K, x2 = 0.0999	357
298.15 K, x2 = 0.2032	183
298.15 K, x2 = 0.5002	53.3
298.15 K, x2 = 0.7009	17.98
303.15 K, x2 = 0.5002	43.28
308.15 K, x2 = 0.7009	13.26
308.15 K, x2 = 0.9013	3.819
313.15 K, x2 = 0	119.2
313.15 K, x2 = 0.0999	106.6
313.15 K, x2 = 0.2032	82.2
313.15 K, x2 = 0.301	63.1
318.15 K, x2 = 0.2032	66.1
318.15 K, x2 = 0.5002	25.15
318.15 K, x2 = 0.7009	10.13
323.15 K, x2 = 0.5002	21.5
323.15 K, x2 = 0.9013	2.638

CCCCCC[n+]1ccn(C)c1.F[B-](F)(F)F + CC(C)O + CCCO
viscosity [mPa·s], 101 kPa
Conditions	293.15 K	303.15 K	313.15 K
x2 = 0.0547, x3 = 0.092	153.8	92	–
x2 = 0.0978, x3 = 0.4041	31.47	21.38	15.28
x2 = 0.1003, x3 = 0.7991	4.92	3.33	2.35
x2 = 0.1006, x3 = 0.6013	13.2	9.16	6.69
x2 = 0.1012, x3 = 0.4996	20.14	13.93	10.1
x2 = 0.1014, x3 = 0.7009	8.3	5.74	4.16
x2 = 0.1116, x3 = 0.2875	49.62	32.6	22.59
x2 = 0.1293, x3 = 0.1504	85.1	53.44	–
x2 = 0.1973, x3 = 0.1121	75.21	48.39	32.33
x2 = 0.1985, x3 = 0.4006	20.51	14.2	10.17
x2 = 0.1992, x3 = 0.3012	32.59	21.43	15.29
x2 = 0.2003, x3 = 0.2005	49.41	32.39	22.5
x2 = 0.2003, x3 = 0.4992	13.3	9.31	6.79
x2 = 0.2012, x3 = 0.6984	5	3.35	2.37
x2 = 0.2977, x3 = 0.1042	50.06	32.73	22.7
x2 = 0.2999, x3 = 0.4989	8.8	6.05	4.35
x2 = 0.3037, x3 = 0.4006	13.28	9.19	6.68
x2 = 0.3046, x3 = 0.5961	5.05	3.39	2.36
x2 = 0.3058, x3 = 0.3005	20.27	13.93	10.1
x2 = 0.3977, x3 = 0.2999	13.8	9.55	6.92
x2 = 0.3985, x3 = 0.104	31.6	21.33	15.15
x2 = 0.3987, x3 = 0.3005	13.61	9.43	6.88
x2 = 0.3989, x3 = 0.3998	8.77	6.02	4.33
x2 = 0.3989, x3 = 0.5015	5.18	3.4	2.38
x2 = 0.4002, x3 = 0.1968	21.12	14.53	10.38
x2 = 0.4992, x3 = 0.4006	5.21	3.47	2.4
x2 = 0.5004, x3 = 0.0998	20.98	14.38	10.33
x2 = 0.5013, x3 = 0.3019	8.68	5.91	4.23
x2 = 0.5734, x3 = 0.2335	8.61	5.85	4.17
x2 = 0.6, x3 = 0.0992	13.73	9.47	6.84
x2 = 0.6001, x3 = 0.3004	5.39	3.43	2.38
x2 = 0.6942, x3 = 0.1049	8.82	5.98	4.27
x2 = 0.698, x3 = 0.2007	5.44	3.54	2.45
x2 = 0.7991, x3 = 0.101	5.41	3.47	2.37

COP(=O)([O-])OC.Cn1cc[n+](C)c1 + CC(C)O + O
100 kPa
Conditions	viscosity [mPa·s]
298.15 K, x2 = 0.248, x3 = 0.2507	83
303.15 K, x2 = 0.2, x3 = 0.1998	87
313.15 K, x2 = 0.148, x3 = 0.1518	81
323.15 K, x2 = 0.1, x3 = 0.0988	80
333.15 K, x2 = 0.044, x3 = 0.043	92
